Source: patent US20240174744A1, “METHODS OF TREATMENT USING PROTEIN BINDERS TO IRHOM2 EPITOPES” (SCIRHOM GMBH, priority 2021, published 2024)

System: PMA-induced release of TGFα from PC3 cells
Assay: ELISA-based TGFα release assay, PMA-stimulated PC3 cells
Type: cell-based
Details: Homo sapiens, PC-3; recombinant murine antibodies 1 μg/ml; Batimastat 10 μM; PMA 25 ng/ml, 2 hours
Experimental: In the following study, ELISA-based TGFα release assays were performed to analyze the inhibitory effects of the antibodies of the present disclosure on PMA-induced release of endogenous TGFα from human PC3 prostate cancer cells.
In brief, on day 1, Nunc black MaxiSorp® 96-well plates (Thermo Fisher Scientific, USA) were coated overnight with 100 μl per well of goat anti-human TGFα capture antibody (provided as part of the DuoSet ELISA kit) at 0.4 μg/ml TBS at 4° C. On day 2, the capture antibody solution was removed and MaxiSorp® plates were blocked with 300 μl per well of TBS, 1% BSA at room temperature for 3 hours. […] Using an infinite M1000 (Tecan Group, Switzerland) microplate reader, the fluorescence of each well was collected at an excitation wavelength of 435 nm and an emission wavelength of 555 nm.

CNC(=O)[C@H](Cc1ccccc1)NC(=O)[C@H](CC(C)C)[C@H](CSc1cccs1)C(=O)NO [Batimastat]
inhibition at 10 µM: 99.1%
